For one series, the target named is T1, human mGluR5d (Homo sapiens, UniProt P41594).
T1 construct: expressed in transfected cells; It is kept under hygromycin B and Zeocin selection; The separate IP3 assay names GHEK cells
Description: FLIPR assay, mGluR5 antagonism (intracellular calcium mobilization). Format: cell-based. Conditions: cells expressing human mGluR5d; fluo-3 calcium signal; read-out: FLIPR hmGluR5d. From the text:
Functional Assessment of mGluR5 Antagonism in Cell Lines Expressing mGluR5D
The properties of the compounds of the invention can be analyzed using standard assays for pharmacological activity. Examples of glutamate receptor assays are well known in the art as described in for example Aramori et al., Neuron 8:757 (1992), Tanabe et al., Neuron 8:169 (1992), Miller et al., J. Neuroscience 15: 6103 (1995), Balazs, et al., J. Neurochemistry 69:151 (1997). The methodology described in these publications is incorporated herein by reference. Conveniently, the compounds of the invention can be studied by means of an assay (FLIPR) that measures the mobilization of intracellular calcium, [Ca^2+], in cells expressing mGluR5 or another assay (IP3) that measures inositol phosphate turnover.
Cells expressing human mGluR5d as described in WO97/05252 cultured in a mixture of high glucose DMEM with Glutamax (31966-021) (500 mL), 10% dialyzed fetal bovine serum (Hyclone #SH30079.03) (56 mL), 200 μg/mL Hygromycin B (Invitrogen 45-0430, 50 mg/mL)(2.2 mL), 200 μg/mL Zeocin (Invitrogen #R250-01; 100 mg/mL)(1.1 mL) are seeded at a density of 100,000 cells per well on collagen coated clear bottom 96-well plates with black sides and cells were allowed to adhere over night before experiments. All assays are done in a buffer containing 146 mM NaCl, 5 mM KCl, 1 mM MgCl2, 1 mM CaCl2, 20 mM HEPES, 1 mg/mL glucose and 1 mg/mL BSA Fraction IV (pH 7.4). Cell cultures in the 96-well plates are loaded for 60 minutes in the above mentioned buffer containing 6 μM of the acetoxymethyl ester form of the fluorescent calcium indicator fluo-3 (Molecular Probes, Eugene, Oreg.) in 0.025% pluronic acid (a proprietary, non-ionic surfactant polyol -CAS Number 9003-11-6). Following the loading period the fluo-3buffer is removed and replaced with fresh assay buffer. FLIPR experiments are done using a laser setting of 0.700 W and a 0.4 second CCD camera shutter speed with excitation and emission wavelengths of 488 nm and 562 nm, respectively. Each experiment is initiated with 160 μl of buffer present in each well of the cell plate. A 40 μl addition from the antagonist plate was followed by a 50 μL addition from the agonist plate. A 30 minutes, in dark at 25° C., interval separates the antagonist and agonist additions. The fluorescence signal is sampled 50 times at 1-second intervals followed by 3 samples at 5-second intervals immediately after each of the two additions. Responses are measured as the difference between the peak heights of the response to agonist, less the background fluorescence within the sample period. IC50 determinations are made using a linear least squares fitting program.
For orientation: Calcium assays in cells follow changes in intracellular calcium, usually with a dye or a luminescent sensor.

A short description of series [1]: Determination of brain to plasma ratio in rat. Format: in vivo. Conditions: brain and plasma, female Sprague Dawley rats, read-out: Brain/Plasma Ratio of compound in Rat. The protocol: Determination of Brain to Plasma Ratio in Rat
Brain to plasma ratios are estimated in female Sprague Dawley rats. The compound is dissolved in water or another appropriate vehicle. For determination of brain to plasma ratio the compound is administrated as a subcutaneous, or an intravenous bolus injection, or an intravenous infusion, or an oral administration. At a predetermined time point after the administration a blood sample is taken with cardiac puncture. The rat is terminated by cutting the heart open, and the brain is immediately retained. The blood samples are collected in heparinized tubes and centrifuged within 30 minutes, in order to separate the plasma from the blood cells. The plasma is transferred to 96-well plates and stored at −20° C. until analysis. The brains are divided in half, and each half is placed in a pre-tarred tube and stored at −20° C. until analysis. Prior to the analysis, the brain samples are thawed and 3 mL/g brain tissue of distilled water is added to the tubes. The brain samples are sonicated in an ice bath until the samples are homogenized. Both brain and plasma samples are precipitated with acetonitrile. After centrifugation, the supernatant is diluted with 0.2% formic acid. Analysis is performed on a short reversed-phase HPLC column with rapid gradient elution and MSMS detection using a triple quadrupole instrument with electrospray ionisation and Selected Reaction Monitoring (SRM) acquisition. Liquid-liquid extraction may be used as an alternative sample clean-up. The samples are extracted, by shaking, to an organic solvent after addition of a suitable buffer. An aliquot of the organic layer is transferred to a new vial and evaporated to dryness under a stream of nitrogen. After reconstitution of the residuals the samples are ready for injection onto the HPLC column.

T1 sequence (P41594 21-942 isoform P41594-3 limits assumed): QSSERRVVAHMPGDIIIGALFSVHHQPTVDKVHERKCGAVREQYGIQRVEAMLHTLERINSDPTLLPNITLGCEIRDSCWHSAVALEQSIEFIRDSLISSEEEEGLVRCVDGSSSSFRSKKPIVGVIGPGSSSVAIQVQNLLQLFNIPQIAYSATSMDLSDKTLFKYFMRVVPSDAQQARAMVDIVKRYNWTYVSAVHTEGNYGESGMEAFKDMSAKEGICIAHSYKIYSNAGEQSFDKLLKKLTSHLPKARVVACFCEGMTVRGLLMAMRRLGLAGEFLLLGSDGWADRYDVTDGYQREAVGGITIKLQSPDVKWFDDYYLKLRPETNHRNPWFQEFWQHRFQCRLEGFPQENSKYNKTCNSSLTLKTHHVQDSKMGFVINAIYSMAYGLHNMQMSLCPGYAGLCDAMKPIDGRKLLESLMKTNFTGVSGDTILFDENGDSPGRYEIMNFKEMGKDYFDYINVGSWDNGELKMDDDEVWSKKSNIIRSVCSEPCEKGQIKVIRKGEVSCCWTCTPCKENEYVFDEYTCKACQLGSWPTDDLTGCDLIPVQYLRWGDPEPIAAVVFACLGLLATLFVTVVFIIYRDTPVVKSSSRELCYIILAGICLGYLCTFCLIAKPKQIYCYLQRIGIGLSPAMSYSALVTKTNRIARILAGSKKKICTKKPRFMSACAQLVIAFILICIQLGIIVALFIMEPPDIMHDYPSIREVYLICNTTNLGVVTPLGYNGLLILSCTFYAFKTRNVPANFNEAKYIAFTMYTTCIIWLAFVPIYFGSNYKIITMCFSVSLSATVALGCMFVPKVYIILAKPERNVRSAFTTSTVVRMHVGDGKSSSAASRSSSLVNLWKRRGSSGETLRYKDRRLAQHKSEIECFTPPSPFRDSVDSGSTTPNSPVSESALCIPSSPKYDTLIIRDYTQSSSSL

As for `Cc1cccc(-c2cc([C@H]3C[C@H]4C[C@H]4N3c3nnc(-c4cc[nH]c(=O)n4)n3C)no2)c1` [Example 13.2, 4-(4-Methyl-5-{(1R,3R,5R)-3-[5-(3-methylphenyl)isoxazol-3-yl]-2-azabicyclo[3.1.0]hex-2-yl}-4H-1,2,4-triazol-3-yl)pyrimidin-2(1H)-one], the IC50 at human mGluR5d stood at 131 nM. The same measure, in the same setting: the figure for `Cc1cccc(-c2cc([C@H]3C[C@H]4C[C@H]4N3c3nnc(-c4cn[nH]c(=O)c4)n3C)no2)c1` [Example 13.3, 5-(4-Methyl-5-{(1R,3R,5R)-3-[5-(3-methylphenyl)isoxazol-3-yl]-2-azabicyclo[3.1.0]hex-2-yl}-4H-1,2,4-triazol-3-yl)pyrimidin-3(2H)-one] is 71 nM; for `Cn1c(-c2cn[nH]c(=O)c2)nnc1N1C[C@H]2C[C@H]2[C@@H]1c1cc(-c2cccc(Cl)c2)on1` [Example 13.9, 5-(5-{(1R,2R,5S)-2-[5-(3-Chlorophenyl)isoxazol-3-yl]-3-azabicyclo[3.1.0]hex-3-yl}-4-methyl-4H-1,2,4-triazol-3-yl)pyridazin-3(2H)-one] it is 46 nM; for `Cn1c(-c2ccc(C(N)=O)cc2)nnc1N1[C@@H](c2cc(-c3cccc(Cl)c3)on2)C[C@H]2C[C@H]21` [Example 13.5, 4-(5-{(1R,3R,5R)-3-[5-(3-Chlorophenyl)isoxazol-3-yl]-2-azabicyclo[3.1.0]hex-2-yl}-4-methyl-4H-1,2,4-triazol-3-yl)benzamide] it is 14 nM.

Take `Cn1c(-c2ccn(C)c(=O)c2)nnc1N1C[C@H]2C[C@H]2[C@@H]1c1cc(-c2cccc(Cl)c2)on1` [Example 13.8, 4-(5-{(1R,2R,5S)-2-[5-(3-Chlorophenyl)isoxazol-3-yl]-3-azabicyclo[3.1.0]hex-3-yl}-4-methyl-4H-1,2,4-triazol-3-yl)-1-methylpyridin-2(1H)-one]: the IC50 at human mGluR5d stood at 51 nM.

For `Cc1cccc(-c2cc([C@H]3C[C@H]4C[C@H]4N3c3nnc(-c4ccn(C)c(=O)c4)n3C)no2)c1` [Example 13.1, 1-Methyl-4-(4-methyl-5-{(1R,3R,5R)-3-[5-(3-methylphenyl)isoxazol-3-yl]-2-azabicyclo[3.1.0]hex-2-yl}-4H-1,2,4-triazol-3-yl)pyridin-2(1H)-one], the Kp in series [1] was found to be 0.01. Besides, the IC50 at human mGluR5d is 73 nM. As to `Cn1c(-c2cn[nH]c(=O)c2)nnc1N1[C@@H](c2cc(-c3cccc(Cl)c3)on2)C[C@H]2C[C@H]21` [Example 13.6, 5-(5-{(1R,3R,5R)-3-[5-(3-Chlorophenyl)isoxazol-3-yl]-2-azabicyclo[3.1.0]hex-2-yl}-4-methyl-4H-1,2,4-triazol-3-yl)pyridazin-3(2H)-one], in series [1], the Kp is under 0.01. The IC50 at human mGluR5d worked out at 32 nM. On the same counts, the results for `Cn1c(-c2ccn(C)c(=O)c2)nnc1N1[C@@H](c2cc(-c3cccc(Cl)c3)on2)C[C@H]2C[C@H]21` [Example 13.4, 4-(5-{(1R,3R,5R)-3-[5-(3-Chlorophenyl)isoxazol-3-yl]-2-azabicyclo[3.1.0]hex-2-yl}-4-methyl-4H-1,2,4-triazol-3-yl)-1-methylpyridin-2(1H)-one] are under 0.01 and 39 nM.

For the origin of these results see patent publication US20090111820A1, “FUSED PYRROLIDINE 1,2,4-TRIAZOLE DERIVATIVES AS MODULATORS OF MGLUR5” (priority 2007, published 2009).
